Reference: ChEMBL document CHEMBL3603809, “New Frontiers in Selective Human MAO-B Inhibitors” (J Med Chem, 2015)

Assays:
[1] = molecular target: T1, Amine oxidase [flavin-containing] B (Homo sapiens, UniProt P27338); test: Inhibition of human MAOB
T1 sequence (P27338 whole entry): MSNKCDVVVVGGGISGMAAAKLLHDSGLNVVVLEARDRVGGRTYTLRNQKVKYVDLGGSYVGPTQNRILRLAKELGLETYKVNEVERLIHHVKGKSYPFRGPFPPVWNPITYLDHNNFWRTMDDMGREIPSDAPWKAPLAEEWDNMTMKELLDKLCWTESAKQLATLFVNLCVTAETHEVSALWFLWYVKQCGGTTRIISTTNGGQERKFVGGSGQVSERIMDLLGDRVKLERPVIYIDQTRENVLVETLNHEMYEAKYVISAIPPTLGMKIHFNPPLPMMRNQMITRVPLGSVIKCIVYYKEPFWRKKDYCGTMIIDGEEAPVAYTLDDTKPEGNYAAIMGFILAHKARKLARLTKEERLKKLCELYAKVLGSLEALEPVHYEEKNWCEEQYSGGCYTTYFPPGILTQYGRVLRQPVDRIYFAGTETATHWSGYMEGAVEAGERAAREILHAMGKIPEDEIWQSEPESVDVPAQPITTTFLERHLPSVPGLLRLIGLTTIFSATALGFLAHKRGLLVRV

Homo sapiens = organism: Homo sapiens; test: Selectivity index, ratio of Ki for human MAOA to Ki for human MAOB
[2] = molecular target: T1, Amine oxidase [flavin-containing] B; test: Competitive inhibition of human liver MAOB expressed in Pichia pastoris
[3] = Inhibition of baboon MAOB; parameters: species or system Papio

| SMILES | Ki [1] [nM] | also measured |
| --- | --- | --- |
| C#CCN(C)c1nc2nc(CCC3CCN(Cc4ccccc4)CC3)ccc2c(-c2ccccc2)c1C#N | 32 | Ratio Ki (Homo sapiens): > 3 |
| CN(C)c1ccc(/N=C/c2ccccn2)cc1 |  | Ratio Ki (Homo sapiens): 3 |
| C(=C\Cc1ccccc1)/Cc1ccccc1 |  | Ki [2]: 35 nM |
| Cn1c(=O)c2c(nc(OCc3ccc(Br)cc3)n2C)n(C)c1=O | 62 |  |
| Cn1c(=O)c2c(nc(OCc3cccc(Br)c3)n2C)n(C)c1=O | 68 |  |
| Cn1c(=O)c2c(nc(/C=C/C=C/c3cccc(Br)c3)n2C)n(C)c1=O |  | Ki [3]: 17 nM |
| C#CN(C)Cc1ccc(C(=O)NC2CC(C)(C)N([O])C(C)(C)C2)cc1 | 22000 |  |
